Measurements: ChEMBL document CHEMBL5143617 (Eur J Med Chem, 2022)
Calls of active or inactive are those of the source. The rule behind the calls is not given here.

Tests used:
[1] = target: T1, 5-hydroxytryptamine receptor 1A (Homo sapiens, UniProt P08908); assay: Displacement of [3H]-[…] from human 5-HT1A receptor expressed in CHO-K1 cells membrane by scintillation counter analysis; assay type: cell membranes
T1 sequence (P08908 whole entry): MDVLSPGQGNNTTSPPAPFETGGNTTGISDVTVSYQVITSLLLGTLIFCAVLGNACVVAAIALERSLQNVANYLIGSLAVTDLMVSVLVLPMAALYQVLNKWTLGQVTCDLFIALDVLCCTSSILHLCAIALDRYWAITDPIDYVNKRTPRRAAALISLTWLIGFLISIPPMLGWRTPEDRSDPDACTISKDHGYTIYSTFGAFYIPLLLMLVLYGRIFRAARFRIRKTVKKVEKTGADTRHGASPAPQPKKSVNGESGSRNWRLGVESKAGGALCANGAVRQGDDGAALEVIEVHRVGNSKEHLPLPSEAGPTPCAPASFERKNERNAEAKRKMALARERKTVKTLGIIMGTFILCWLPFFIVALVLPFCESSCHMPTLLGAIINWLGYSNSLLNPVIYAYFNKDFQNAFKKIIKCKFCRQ

[2] = target: 5-hydroxytryptamine receptor 7 (Homo sapiens, UniProt P34969); assay: Displacement of [3H]-5-CT from human 5-HT7 receptor expressed in CHO-K1 cells membrane by scintillation counter analysis; assay type: cell membranes
[3] = target: T2, cAMP and cAMP-inhibited cGMP 3',5'-cyclic phosphodiesterase 10A (Homo sapiens, UniProt Q9Y233); assay: Inhibition of PDE10A (unknown origin) at 10 uM preincubated for 20 mins followed by substrate addition and measured after 1 hr by PEDlight AMP detection reagent based luminescence assay relative to control; details: time 80.0 min
Mus musculus = assay: Anxiolytic-like activity in Swiss albino mouse at 2.5 mg/kg, ip by four plate test; assay type: functional, organism-based
[4] = target: T2, cAMP and cAMP-inhibited cGMP 3',5'-cyclic phosphodiesterase 10A; assay: Inhibition of PDE10A (unknown origin) preincubated for 20 mins followed by substrate addition and measured after 1 hr by PEDlight AMP detection reagent based luminescence assay
[5] = Permeability of the compound across apical to basolateral side in human Caco-2 cells at pH 6.5; assay type: ADME, cell-based; details: Caco-2, pH 6.5, read-out: permeability
[6] = Permeability of the compound across apical to basolateral side in human Caco-2 cells at pH 7.4; assay type: ADME, cell-based; details: Caco-2, pH 7.4, read-out: permeability

SMILES: COc1cc2ncnc(N3CCC(CN4CCN(c5cccc(C(F)(F)F)c5)CC4)C3)c2cc1OC (configuration not stated)
- Ki [1]: 20.9 nM
- Ki [2]: 229 nM
- inhibition [3]: 3%
- Activity (Mus musculus): Active

SMILES: CSc1ccc2c(c1)CC(N1CCN(C)CC1)c1ccccc1S2 (configuration not stated)
- Ki [2]: 1.12 nM

SMILES: O=c1[nH]c2cccc(N3CCN(Cc4ccc5ccccc5n4)CC3)c2[nH]1
- Ki [1]: 245 nM
- Ki [2]: 417 nM
- inhibition [3]: 17%

SMILES: O=c1[nH]c2cccc(N3CCN(Cc4nc5ccccc5[nH]4)CC3)c2[nH]1
- IC50 [4]: 4070 nM
- Ki [1]: > 1000 nM
- Ki [2]: > 1000 nM
- inhibition [3]: 23%

SMILES: COc1cc2ncnc(N3CCN(Cc4cnc5ccccc5n4)CC3)c2cc1OC
- IC50 [4]: 170000 nM
- Ki [1]: > 1000 nM
- Ki [2]: > 1000 nM
- inhibition [3]: 29%

SMILES: COc1cc2ncnc(N3CCN(Cc4ccc5ccccc5n4)CC3)c2cc1OC
- Ki [1]: > 1000 nM
- Ki [2]: > 1000 nM
- inhibition [3]: 8%

SMILES: COc1cc2ncnc(N3CCC(CN4CCN(c5cccc(Cl)c5)CC4)C3)c2cc1OC (configuration not stated)
- Ki [1]: 30.2 nM
- Ki [2]: 372 nM
- inhibition [3]: 4%

SMILES: COc1cc2ncnc(N3CCC(CN4CCN(c5ccccc5OC)CC4)C3)c2cc1OC (configuration not stated)
- Ki [1]: 1.62 nM
- Ki [2]: 56.2 nM
- inhibition [3]: 16%

SMILES: c1ccc2nc(CN3CCN(c4cccc5cn[nH]c45)CC3)ccc2c1
- Ki [1]: > 1000 nM
- Ki [2]: > 1000 nM

SMILES: O=c1[nH]c2cccc(N3CCN(Cc4cnc5ccccc5n4)CC3)c2[nH]1
- Ki [1]: 83.2 nM
- Ki [2]: > 1000 nM
- inhibition [3]: 9%

SMILES: CNC(=C[N+](=O)[O-])NCCSCc1ccc(CN(C)C)o1 [RANITIDINE]
- Papp A→B [5]: 0.3 ×10⁻⁶ cm/s
- Papp A→B [6]: 0.9 ×10⁻⁶ cm/s

SMILES: c1cc(N2CCN(Cc3nc4ccccc4[nH]3)CC2)c2[nH]ncc2c1
- Ki [1]: > 1000 nM
- Ki [2]: > 1000 nM

SMILES: c1cc(N2CCN(c3cccc4cn[nH]c34)CC2)c2ncncc2c1
- Ki [1]: > 1000 nM
- Ki [2]: > 1000 nM
- inhibition [3]: 3%
